Assay [1] relates to T. cruzi intracellular amastigotes. Further details: method as in PMID 25740547. The settings on record: high-throughput screening hit ref 13; read-out: EC50 against T. cruzi intracellular amastigotes; cited from earlier work.
Assay [2] has as its system L. donovani intracellular amastigotes within macrophages. The assay can be described thus: microbe, parasite or virus in culture. The settings on record: Leishmania donovani. Type of assay: cell-based.
Assay [3] relates to T. brucei Bloodstream Forms. The assay can be described thus: T. brucei bloodstream form drug sensitivity. Format: cell-based, Trypanosoma brucei. The settings on record: read-out: EC50 values, T. brucei BSF. As to the method: EC50 values for test compounds were determined as previously described.[40]
The test system of assay [4] is T. cruzi Intra-Vero Cells (intracellular amastigotes). The assay can be described thus: T. cruzi intracellular amastigote (Intra-Vero) drug sensitivity. Type of assay: cell-based. To be noted: Trypanosoma cruzi; intracellular amastigotes in Vero cells. As to the method: (§1) T. cruzi and L. donovani intracellular amastigote drug sensitivity assays were conducted as previously described.[42],[43]

The test system of assay [5] is T. cruzi epimastigotes. The assay can be described thus: T. cruzi epimastigote respiration (O2 consumption, MitoXpress-Xtra). Format: cell-based. The settings on record: Trypanosoma cruzi, read-out: O2 consumption, IC50 values, T. cruzi. As to the method: Compounds were predispensed (150 nL well^–1) into 384-well assay plates using an Echo liquid handler (Labcyte Inc.). […] The negative control for this assay was 0.2% DMSO, equivalent to the final concentration of solvent used in drug dilutions.
Our O2 consumption assay was an adaptation of the assay described by Khare and colleagues.[14] Briefly, assay buffer (250 mM sucrose, 15 mM KCl, 5 mM MgCl2, 1 mM EGTA, 30 mM K2HPO4, pH 7.4; 25 μL) was added to 384-well assay plates and incubated at 37 °C for 10 min. Mid log T. cruzi epimastigotes were harvested (1600g for 10 min at 4 °C), washed three times with buffer A (10 mM Tris-HCl, pH 7.4, 230 mM mannitol, 70 mM sucrose, 0.2 mM EDTA, 0.2% bovine serum albumin, 0.5 mM PMSF), and finally resuspended at 1.5 × 10^8 epimastigotes mL^–1. Following resuspension, 3 × 10^6 epimastigotes (20 μL) were dispensed into each well followed by MitoXpress-Xtra probe (15 μL, Agilent) resulting in a final assay volume of 60 μL. Plates were gently shaken, and 30 μL of HS mineral oil (Agilent) was then added to each well to prevent oxygen exchange between the assay buffer and air. Plates were incubated for 90 min at 37 °C, and fluorescence was then measured using an EnVision MultiMode plate reader (PerkinElmer) using excitation and emission wavelengths of 380 and 650 nm, respectively.
Data were normalized to percent of biological response by using positive (i.e., highest response achieved using a chemical tool compound, RactinomycinA) or negative (i.e., lowest response achieved in the absence of any testing compound, RDMSO) controls by using the following equation: [drawing 3] where Rx is the assay response measured in the presence of test compounds.

Assay [6] relates to L. donovani promastigotes. The assay can be described thus: microbe, parasite or virus in culture. The settings on record: for EC50: Leishmania donovani. Type of assay: cell-based, Leishmania donovani.
The test system of assay [7] is L. donovani Intramacrophage Amastigotes. The assay can be described thus: L. donovani intramacrophage amastigote drug sensitivity. The settings on record: Leishmania donovani, read-out: EC50 values, L. donovani Intra-MAC. Format: cell-based. As to the method: as §1
The target of assay [8] is complex III (cytochrome bc1 complex) (Trypanosoma cruzi, UniProt Q9T479). In words: Complex III (cytochrome c reduction) assay, T. cruzi lysate. Type of assay: biochemical. The settings on record: mitochondria-enriched lysate of epimastigotes.
Assay [9] relates to T. brucei Procyclics. In words: T. brucei procyclic drug sensitivity (resazurin). Type of assay: cell-based, Trypanosoma brucei. To be noted: read-out: EC50 values, T. brucei Pro. As to the method:
To examine the effects of test compounds on growth, mid log procyclics were seeded into 96-well plates at a cell density of 5 × 10^5 cells mL^–1. Cells were exposed to test compounds over a range of concentrations (2-fold serial dilutions). Following 72 h of incubation in the presence of drug, 500 μM resazurin was added to each well and fluorescence measured after a further 2 h incubation.
A general note: The colour change of resazurin is a common sign of viable cells or microbes.

Assay [10] concerns T. cruzi epimastigotes. In words: microbe, parasite or virus in culture. Format: cell-based. To be noted: Trypanosoma cruzi.
For assay [11], the system named is HepG2 Cells. The assay can be described thus: HepG2 cell potency. Format: cell-based. To be noted: Homo sapiens. The procedure:
Table 1 Compound Efficacy: Potencies of Compounds Were Determined against L. donovani Promastigotes (Pro), L. donovani Intramacrophage Amastigotes (Intra-MAC), T. cruzi Epimastigotes (Epi), T. cruzi Intra-Vero Cells (Intra-Vero), T. brucei Bloodstream Forms (BSF), T. brucei Procyclics (Pro), and HepG2 Cells ^a | column: HepG2

The target in assay [12] is complex III (cytochrome bc1 complex) (Leishmania donovani, UniProt A5HU08). The assay can be described thus: biochemical. Type of assay: biochemical.
The target of assay [13] is T1, complex III (cytochrome bc1 complex) (Leishmania donovani, UniProt A5HU08).
T1 sequence (A5HU08 1-290): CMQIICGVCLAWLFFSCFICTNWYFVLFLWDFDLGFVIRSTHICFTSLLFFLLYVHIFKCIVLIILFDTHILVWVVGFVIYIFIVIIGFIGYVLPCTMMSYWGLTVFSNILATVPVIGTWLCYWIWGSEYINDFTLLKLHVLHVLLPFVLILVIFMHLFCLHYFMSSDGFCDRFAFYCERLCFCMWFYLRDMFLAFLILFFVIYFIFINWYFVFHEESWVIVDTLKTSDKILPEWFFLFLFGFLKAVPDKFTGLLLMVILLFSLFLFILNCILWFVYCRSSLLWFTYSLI
T1 sequence (A0A3S7WPP0 1-258 partner): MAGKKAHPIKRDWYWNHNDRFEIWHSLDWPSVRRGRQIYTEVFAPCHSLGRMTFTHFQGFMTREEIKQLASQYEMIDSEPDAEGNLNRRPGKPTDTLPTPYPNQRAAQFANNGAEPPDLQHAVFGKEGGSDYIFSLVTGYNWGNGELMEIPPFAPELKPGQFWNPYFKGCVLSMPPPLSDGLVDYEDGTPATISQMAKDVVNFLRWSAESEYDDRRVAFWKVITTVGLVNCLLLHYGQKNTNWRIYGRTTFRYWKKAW
The assay can be described thus: biochemical. Type of assay: biochemical. The settings on record: read-out: complex III IC50 values, Compound 1 RES1 lysate; lysate of L. donovani Compound 1 RES1 cell line.

In assay [14] the target is T2, complex III (cytochrome bc1 complex) (Leishmania donovani, UniProt A5HU08, F187I).
T2 sequence (A5HU08 1-290 F187I): T1 sequence (A5HU08 1-290)
T2 sequence (A0A3S7WPP0 1-258 partner): T1 sequence (A0A3S7WPP0 1-258 partner)
In words: biochemical. Type of assay: biochemical.

The test system of assay [15] is T. cruzi Intra-Vero Cells (intracellular amastigotes). Set-up: method as in PMID 26186534. The settings on record: reported previously ref 14; cited from earlier work.
For assay [16], the system named is T. cruzi epimastigotes. Set-up: method as in PMID 26186534. The settings on record: reported previously ref 14; read-out: O2 consumption, IC50 values, T. cruzi; cited from earlier work.
[17] abbreviates: Macrophage, read-out: Leishmania EC50, Compound 1 RES1.
The mark [18] stands for this setting: Macrophage, read-out: Leishmania EC50, Compound 2 RES1.
The mark [19] stands for this setting: intra-macrophage, WT parasites, read-out: Leishmania EC50, WT.
Where [20] appears, read: Trypanosoma brucei, bloodstream form.
Where [21] appears, read: epimastigotes (3 × 10^6), MitoXpress-Xtra probe.
The mark [22] stands for this setting: wild-type promastigotes, read-out: EC50 values, L. donovani Pro.
Where [23] appears, read: wild-type epimastigotes, read-out: EC50 values, T. cruzi Epi.
The mark [24] stands for this setting: HepG2 cells, read-out: EC50 values, HepG2.

Like-named read-outs stand apart in the source and are kept apart here. Some results are limits rather than exact numbers.

In general, EC50 refers to the midpoint of the concentration-response curve. One may read the IC50 as the concentration that inhibits the measured activity by half.

For the compound `Cc1nc2nc(C)c(Cc3ccc(C(C)C)cc3)c(=O)n2[nH]1` [TCMDC-143087], the EC50 in [1] was 250 nM.

Turning to `Cc1nn2c(=O)c(Cc3ccc(Cl)cc3)c(C)[nH]c2c1C` [compound 1], the EC50 in assay [2] (setting [17]) was 1300 nM; in assay [2] (setting [18]) it was 20 nM; in assay [2] (setting [19]), 100 nM; in assay [3] (setting [20]), 6600 ± 470 nM; in assay [3] (bloodstream form, listed as DDD01542111 (compound 1)), 6700 ± 470 nM; in assay [4], 20 ± 3 nM. The EC50 in assay [6] (WT promastigotes, resistance study, read-out: EC50 against WT L. donovani (Figure 2)) worked out at 21.5 ± 0.5 nM; in assay [6] (compound 1-resistant promastigote clone RES I, read-out: EC50 against L. donovani RES I) it was 1300 ± 14 nM; in assay [6] (compound 1-resistant promastigote clone RES II, read-out: EC50 against L. donovani RES II) it was 1300 ± 96 nM; in assay [6] (compound 1-resistant promastigote clone RES III, read-out: EC50 against L. donovani RES III), 790 ± 27 nM; in assay [6] (setting [22]), 19 ± 1 nM; in assay [7] it was 1500 ± 400 nM. Further, the EC50 came out at 97 ± 3 nM in assay [9] (Trypanosoma brucei, procyclics); 120 ± 6 nM in assay [10] (WT epimastigotes, resistance study, read-out: EC50 against WT T. cruzi (Figure 2)); 1400 ± 78 nM in assay [10] (compound 1-resistant epimastigote clone RES I, read-out: EC50 against T. cruzi RES I); 2500 ± 62 nM in [10] (compound 1-resistant epimastigote clone RES II, read-out: EC50 against T. cruzi RES II); 3800 ± 160 nM in [10] (compound 1-resistant epimastigote clone RES III, read-out: EC50 against T. cruzi RES III); 210 ± 7 nM in assay [10] (setting [23]). For the same compound, the EC50 in assay [11] (setting [24]) was > 50000 nM. In addition, the 50% inhibitory concentration (IC50) in [5] (setting [21]) was 150 ± 36 nM; in assay [8], 72 ± 16 nM; in assay [12], 44 ± 7 nM; in assay [13], 220 ± 51 nM.

On to `Cc1cc(C)c2c(N)c(C(=O)N3CCC(C)(C)c4ccccc43)sc2n1` [compound 2], for which the half-maximal effective concentration (EC50) stood at 30 nM in assay [2] (setting [17]); 4400 nM in assay [2] (setting [18]); 400 nM in [2] (setting [19]); 8000 ± 970 nM in assay [3] (setting [20]); 30 ± 10 nM in [4]; 24 ± 2 nM in assay [6] (setting [22]). For the same compound, the half-maximal effective concentration (EC50) is 1100 ± 600 nM in assay [7]; 140 ± 14 nM in assay [9] (Trypanosoma brucei, procyclics); 71 ± 2 nM in [10] (setting [23]); > 50000 nM in assay [11] (setting [24]). In addition, the 50% inhibitory concentration (IC50) in assay [5] (setting [21]) came to 510 ± 119 nM; in assay [8] it was 100 ± 24 nM; in [12], 99 ± 13 nM; in assay [14], 4200 ± 500 nM.

In the case of `CCCCCC[C@H]1C(=O)O[C@H](C)[C@H](NC(=O)c2cccc(NC=O)c2O)C(=O)O[C@@H](C)[C@@H]1OC(=O)CC(C)C` [antimycin A, reference compound], the EC50 in assay [3] (Trypanosoma brucei) was > 50000 nM; in assay [6] (setting [22]), 2 ± 0.1 nM; in assay [9] (Trypanosoma brucei), 18 ± 0.5 nM; in assay [10] (setting [23]), 28 ± 1 nM; in assay [11] (HepG2, read-out: EC50 values, HepG2), < 1000 nM. The IC50 in [5] was 200 ± 36 nM.

As for `CC(=O)Nc1ccc2[nH]c(=O)n([C@H]3CC[C@H](C(C)C)CC3)c(=O)c2c1` [compound 3], the EC50 is 8700 ± 470 nM in assay [3] (setting [20]); 150 ± 46 nM in [4]; 1640 ± 54 nM in [6] (setting [22]); > 50000 nM in [7]; 88 ± 2 nM in assay [9] (Trypanosoma brucei, procyclics); 320 ± 12 nM in assay [10] (setting [23]). Further, in [11] (setting [24]), the 50% effective concentration (EC50) turned out to be 7300 ± 60 nM. In addition, the IC50 was 190 ± 38 nM in [5] (setting [21]), 86 ± 39 nM in assay [8] and > 13000 nM in assay [12].

For `CCc1c(C)c(C#N)c2nc3ccccc3n2c1O` [GNF7686, reference compound], the EC50 is > 50000 nM in [3] (setting [20]); 570 ± 51 nM in assay [6] (setting [22]); > 50000 nM in assay [7]; 521 nM in assay [9] (Trypanosoma brucei, procyclics); 520 ± 13 nM in assay [9] (procyclics); 710 ± 17 nM in assay [10] (setting [23]). For the same compound, the EC50 in assay [15] was 150 ± 30 nM; in assay [11] (setting [24]), > 50000 nM. For the same compound, in [6] (compound 1-selected clone, relative to wild-type), the “relative sensitivity of L. donovani promastigotes bearing cytochrome b C222F mutation” value was “markedly cross-resistant”. Besides, in assay [6] (compound 1-selected clones, relative to wild-type), the “relative sensitivity of L. donovani promastigotes bearing cytochrome b G37A mutation” value is reported as “remaining sensitive”. Moreover, the half-inhibitory concentration (IC50) in assay [8] is 550 ± 97 nM; in [16], 210 nM; in assay [12], 1600 ± 300 nM.
